Test results as given in patent publication US12637438B2, “Protoporphyrinogen oxidase inhibitors” (Enko Chem, Inc., priority 2021, dated 2026).

Tests used:
Format in all cases: in vivo
[1] = tested on: Amaranthus retroflexus (AMARE); test: Post-emergence herbicidal activity, spray at 100 ppm; conditions: % visual injury compared to treatment control 7 days after treatment
Protocol: (§1) Selected compounds of the invention were screened at 100 ppm concentration against Amaranthus retroflexus (AMARE), Setaria italica (SETIT), and Kochia/Bassia scoparia (KCHSC).
(§2) Accordingly, PPO susceptible weed seeds were sown in 5″×5″ pots by quadrant containing Miracle-Gro potting mix (Scotts Miracle-Gro Company, Marysville, OH, USA) and grown in a Conviron growth chamber with appropriate growth conditions (temperature of 26/22° C. with photoperiod 16/8 h light day/night and light intensity of 300 μmol m^−2 s^−1 supplemented by LED lamps). Relative humidity in the growth chamber was maintained at around 65%. Plants were grown until 2-4 leaf stage and thinned to 5-8 plants per quadrant per species.
(§3) Compounds were formulated in 25% Acetone, 1% Crop oil concentrate (COC-Agridex), 0.1% Tween-20, and 2.5% Ammonium sulphate (AMS). Three replicate pots were treated with each compound. Treatment consisting of the above formulation excluding active compound was applied as a treatment control (TC). Plants were treated with the test compound solution in a laboratory spray chamber fitted with 8003 flat fan nozzles calibrated to deliver 187-200 L ha^−1 at 269 kPa. Plants were placed back in the growth chamber and evaluated for % visual injury compared to TC 7 days after treatment (DAT). The data presented in Table 3 in which A represents a percentage control, where 100% control indicates complete inhibition of weed growth.

[2] = tested on: Kochia/Bassia scoparia (KCHSC); test: as above; conditions: % visual injury compared to treatment control 7 days after treatment
Protocol: as §1, §2, §3

Setaria italica (SETIT) = test: as above; conditions: % visual injury compared to treatment control 7 days after treatment
Protocol: as §1, §2, §3

[3] = tested on: Setaria Italica (Foxtail millet); test: Leaf penetration and translocation with and without crop oil concentrate adjuvant (COC); conditions: for Phloem mobility COC / Xylem mobility COC / Phloem mobility No-COC / Xylem mobility No-COC: 1.5 mM, 3×2 μL droplets on leaf, seven days after treatment; for Phloem mobility COC / Xylem mobility COC: with 1% v/v COC; for Phloem mobility No-COC / Xylem mobility No-COC: without COC; for leaf translocation: compared to compounds 920-4 and 920-6
Protocol: Selected compounds of the invention, along with compounds 920-4 and 920-6 from Japanese Patent Application No. 06321920, were tested for leaf penetration, translocation, and herbicidal activity in a grass weed species when applied with or without an adjuvant to increase the compound cuticle penetration.
Four to five PPO susceptible Setarialtalica (Foxtail millet) seed (Ernst Conservation Seeds, Meadville, PA) were sown in each of the 1.5×1.5-inch 6 cell plug inserts containing Miracle-Gro™ potting mix (Scotts Miracle-Gro Company, Marysville, OH, USA) and grown in a Conviron growth chamber with appropriate growth conditions (temperature of 26/22° C. with photoperiod 16/8 h light day/night and light intensity of 300 μmol m^−2 s^−1 supplemented by LED lamps). Relative humidity in the growth chamber was maintained at around 65%. Plants were grown until 1-2 leaf stage (one expanded leaf and one emerging leaf) and thinned to single plant per cell.
Test compounds were formulated to a final concentration of 1.5 mM in 25% Acetone, 0.1% Tween-20 and 2.5% Ammonium sulphate (AMS) with or without the addition of 1% v/v Crop oil concentrate (COC, Agridex). A total of 6 μL was applied as 3×2 μL droplets on the adaxial surface of an emerged Setaria Italica leaf for each of the two compound solutions (with and without COC). Six replicate plants were treated with each compound. Treatment consisting of the above formulation excluding active compound was applied as a treatment control (TC). Plants were placed back in the growth chamber and, seven days after treatment, were evaluated for overall % visual injury compared to TC. Plants were also evaluated for rapid necrosis representative of PPO inhibition at the site of, acropetal to, and basipetal to the droplet application site to estimate the general, xylem, and phloem compound mobility, respectively. In general, compounds with necrosis only at the site of action were considered to be poorly mobile whereas necrosis in the emerging leaf indicates symplastic phloem movement and necrosis from leaf base to tip only on the applied leaf indicates apoplastic xylem movement.
The data are presented in Table 4 are relative to the TC treatment for which the plant and leaf injury percent is consider 0%. “A” represents a percentage leaf or plant injury between 80 and 100%; “B” represents a percentage leaf or plant injury of 20-80%; “C” represents a percentage control below 20%.

[4] = tested on: Amaranthus retroflexus (AMARE), Setaria italica (SETIT), and Kochia/Bassia scoparia (KCHSC); test: Post-emergence herbicidal activity against weed species, overall statement; conditions: concentration of 100 parts per million (PPM)
Protocol: as §1, §2, §3

Row | leaf translocation [3] | Compound | Post-emergence % control (100 PPM) AMARE [1] | Post-emergence % control (100 PPM) KCHSC [2] | Post-emergence % control (100 PPM) SETIT (Setaria italica (SETIT)) | Phloem mobility COC [3] | Xylem mobility COC [3] | Phloem mobility No-COC [3] | Xylem mobility No-COC [3] | herbicidal activity against weed species [4]
1 | significant improved leaf translocation | C#CCN1C(=O)C(F)(F)Oc2cc(F)c(-c3c(F)cc(F)c(F)c3F)cc21 [Compound 37, 2,2,7-trifluoro-4-(prop-2-yn-1-yl)-6-(2,3,4,6-tetrafluorophenyl)-2H-benzo[b][1,4]oxazin-3(4H)-one] | 100% | 92% | 58% | A (“A” represents a percentage leaf or plant injury between 80 and 100%) | A (“A” represents a percentage leaf or plant injury between 80 and 100%) | A (“A” represents a percentage leaf or plant injury between 80 and 100%) | A (“A” represents a percentage leaf or plant injury between 80 and 100%) | excellent herbicidal activity
2 | significant improved leaf translocation | C#CCN1C(=O)COc2cc(F)c(-c3c(F)cc(F)c(F)c3F)cc21 [Compound 52, 7-fluoro-4-(prop-2-yn-1-yl)-6-(2,3,4,6-tetrafluorophenyl)-2H-benzo[b][1,4]oxazin-3(4H)-one] | 100% | 93% | 72% | A (“A” represents a percentage leaf or plant injury between 80 and 100%) | A (“A” represents a percentage leaf or plant injury between 80 and 100%) | A (“A” represents a percentage leaf or plant injury between 80 and 100%) | A (“A” represents a percentage leaf or plant injury between 80 and 100%) | excellent herbicidal activity
3 |  | C#CCN1C(=O)COc2cc(F)c(-c3c(Cl)cc(C(F)(F)F)cc3Cl)cc21 [Compound 920-4, reference compound] | 89% | 52% | 38% | A (“A” represents a percentage leaf or plant injury between 80 and 100%) | A (“A” represents a percentage leaf or plant injury between 80 and 100%) | C (“C” represents a percentage control below 20%) | C (“C” represents a percentage control below 20%) | 
4 |  | C#CCN1C(=O)COc2cc(F)c(-c3ccc(Cl)c(Cl)c3Cl)cc21 [Compound 920-6, reference compound] | 85% | 21% | 18% | A (“A” represents a percentage leaf or plant injury between 80 and 100%) | A (“A” represents a percentage leaf or plant injury between 80 and 100%) | C (“C” represents a percentage control below 20%) | C (“C” represents a percentage control below 20%) | 

Row | Compound | leaf translocation [3] | Post-emergence % control (100 PPM) AMARE [1] | Post-emergence % control (100 PPM) KCHSC [2] | Post-emergence % control (100 PPM) SETIT (Setaria italica (SETIT)) | Phloem mobility COC [3] | Xylem mobility COC [3] | Phloem mobility No-COC [3] | Xylem mobility No-COC [3] | herbicidal activity against weed species [4]
5 | C#CCN1C(=O)C(F)(F)Oc2cc(F)c(-c3c(F)c(F)c(F)c(F)c3F)cc21 [Compound 2, 2,2,7-trifluoro-6-(perfluorophenyl)-4-(prop-2-yn-1-yl)-2H-benzo[b][1,4]oxazin-3(4H)-one] | significant improved leaf translocation | 98% | 75% | 58% | A (“A” represents a percentage leaf or plant injury between 80 and 100%) | A (“A” represents a percentage leaf or plant injury between 80 and 100%) | A (“A” represents a percentage leaf or plant injury between 80 and 100%) | A (“A” represents a percentage leaf or plant injury between 80 and 100%) | excellent herbicidal activity
